PMC10322702 (Nature Chemistry, 2023)
Values joined by “and” are separate entries in the source; they are usually repeats but may differ in a detail not shown here. Equal entries are not always repeated. Numbered stars: 1 amine (or outer) side, 2 acyl side, 3 side chain; on linkers, the order of the positions; unused ones are H or OH. Bridge positions count the residues as written; N and C are the ends. Square brackets hold non-standard residues; d marks the D form. Peptide text beside a SMILES is read from it. Acbc(cis-1,3) = O=C([C@H]1C[C@@H](N[*:1])C1)[*:2]; X1 = O=C([C@@H]1CC[C@H](N[*:1])C1)[*:2]

Tests used:
[1] = target: T1, SARS-CoV-2 M^pro (Severe acute respiratory syndrome coronavirus 2, UniProt P0DTD1); test: biochemical; type: binding; details: for kon: read-out: ka (kinetic association)
[2] = target: T1, SARS-CoV-2 M^pro; test: biochemical; type: biochemical
[3] = Serum stability assay in human serum (LC/MS)
[4] = 37 °C, incubation time 1 h, relative to 0 h = 100%, technical replicates, 60 min
[5] = 37 °C, incubation time 4 h, relative to 0 h = 100%, technical replicates, 240 min
[6] = 37 °C, incubation time 8 h, relative to 0 h = 100%, technical replicates, 480 min
[7] = 37 °C, incubation time 24 h, relative to 0 h = 100%, technical replicates, 1440 min
[8] = 37 °C, incubation time 50 h, relative to 0 h = 100%, technical replicates, 3000 min
[9] = human, Remaining peptide (%), 37 °C, incubation time 1 h, relative to 0 h = 100%, technical replicates
[10] = human, Remaining peptide (%), 37 °C, incubation time 4 h, relative to 0 h = 100%, technical replicates
[11] = human, Remaining peptide (%), 37 °C, incubation time 8 h, relative to 0 h = 100%, technical replicates
[12] = human, Remaining peptide (%), 37 °C, incubation time 24 h, relative to 0 h = 100%, technical replicates
[13] = human, Remaining peptide (%), 37 °C, incubation time 50 h, relative to 0 h = 100%, technical replicates

## CC(C)C[C@@H]1NC(=O)[C@H]([C@@H](C)O)NC(=O)[C@H](Cc2ccc(O)cc2)NC(=O)[C@H]([C@@H](C)O)NC(=O)[C@H](Cc2c[nH]cn2)NC(=O)[C@@H]2CCCN2C(=O)[C@@H]2CCCN2C(=O)[C@H](Cc2ccccc2)NC(=O)[C@H](C)NC(=O)[C@H](Cc2c[nH]cn2)NC(=O)[C@H](Cc2ccccc2)NC(=O)[C@@H](Cc2ccc(O)cc2)NC(=O)CSC[C@H](C(N)=O)NC1=O [GM1γ^14A] ({CH2CO}-[dY]FHAFPPHTYTL[dC]-NH2; thioether N-13)
[1]
  Kd: 10 nM
  fold change in binding affinity relative to the original peptide: fourfold weaker
  kd (kinetic dissociation): 3.2 10^-3 s^-1
  kon: 320000 M⁻¹ s⁻¹
[2]
  IC50: > 5000 nM
  inhibition of M^pro (in words): inhibition was ablated
[3]; [4]
  Remaining peptide (%): 87.05% and 85.28%
[3]; 37 °C, incubation time 2 h, relative to 0 h = 100%, technical replicates, 120 min
  Remaining peptide (%): 71.54% and 71.96%
[3]; [5]
  Remaining peptide (%): 65.45% and 64.12%
[3]; [6]
  Remaining peptide (%): 51.43% and 52.89%
[3]; [7]
  Remaining peptide (%): 25.58% and 25.19%
[3]; [8]
  Remaining peptide (%): 4.30% and 4.38%
[3]; human
  half-life at 10 μM: 8.3 h
[3]; [9]
  remaining at 1 h, 10 μM: 84.3%
[3]; human, Remaining peptide (%), 37 °C, incubation time 2 h, relative to 0 h = 100%, technical replicates
  remaining at 2 h, 10 μM: 70.6%
[3]; [10]
  remaining at 4 h, 10 μM: 63.2%
[3]; [11]
  remaining at 8 h, 10 μM: 56.1%
[3]; [12]
  remaining at 24 h, 10 μM: 26.4%
[3]; [13]
  remaining at 50 h, 10 μM: 4.46%

## CC[C@H](C)[C@@H]1NC(=O)[C@H](Cc2ccccc2)NC(=O)[C@@H](Cc2ccc(O)cc2)NC(=O)CSC[C@H](C(N)=O)NC(=O)[C@H]([C@@H](C)CC)NC(=O)[C@@H]2CCCN2C(=O)[C@H](CC(C)C)NC(=O)[C@H]2C[C@H](C2)NC(=O)[C@H](Cc2c[nH]cn2)NC(=O)[C@@H]2CCCN2C(=O)[C@H](CC(=O)O)NC(=O)[C@H](Cc2c[nH]cn2)NC(=O)[C@H](Cc2ccccc2)NC(=O)[C@H]([C@@H](C)CC)NC(=O)[C@H]([C@@H](C)O)NC(=O)[C@H](Cc2c[nH]cn2)NC1=O [GM6] ({CH2CO}-[dY]FIHTIFHDPH[Acbc(cis-1,3)]LPI[dC]-NH2; thioether N-16)
[1]
  Kd: 82 nM
  kd (kinetic dissociation): 6.4 10^-3 s^-1
  kon: 78000 M⁻¹ s⁻¹
[2]
  IC50: 2280 nM
  inhibition at 5.5 µM: 90.2%
  inhibition at 16.6 µM: 100%
  inhibition at 50.1 µM: 100%

## CC(C)C[C@@H]1NC(=O)[C@H]([C@@H](C)O)NC(=O)[C@H](Cc2ccc(O)cc2)NC(=O)[C@H]([C@@H](C)O)NC(=O)[C@H](Cc2c[nH]cn2)NC(=O)[C@@H]2CCCN2C(=O)[C@@H]2CCCN2C(=O)[C@H](Cc2ccccc2)NC(=O)[C@H]2C[C@H](C2)NC(=O)[C@H](Cc2c[nH]cn2)NC(=O)[C@H](Cc2ccccc2)NC(=O)[C@@H](Cc2ccc(O)cc2)NC(=O)CSC[C@H](C(N)=O)NC1=O [GM1] ({CH2CO}-[dY]FH[Acbc(cis-1,3)]FPPHTYTL[dC]-NH2; thioether N-13)
[1]
  Kd: 2.3 nM
  kd (kinetic dissociation): 0.94 10^-3 s^-1
  kon: 410000 M⁻¹ s⁻¹
[2]
  IC50: 40 nM
  inhibition at 0.000141 µM: 4.71%
  inhibition at 0.0347 µM: 43.7%
  inhibition at 0.102 µM: 75.5%
  inhibition at 0.309 µM: 93.7%
  inhibition at 0.933 µM: 100%
  inhibition at 2.75 µM: 100%
  inhibition at 8.32 µM: 100%
[3]; [4]
  Remaining peptide (%): 111.08% and 111.88%
[3]; [5]
  Remaining peptide (%): 108.25% and 114.45%
[3]; [6]
  Remaining peptide (%): 111.46% and 107.42%
[3]; [7]
  Remaining peptide (%): 74.66% and 74.47%
[3]; [8]
  Remaining peptide (%): 63.33% and 64.88%
[3]; 37 °C, incubation time 100 h, relative to 0 h = 100%, technical replicates, 6000 min
  Remaining peptide (%): 44.95% and 47.73%
[3]; human
  half-life at 10 μM: 90 h
[3]; [9]
  remaining at 1 h, 10 μM: 111%
[3]; [10]
  remaining at 4 h, 10 μM: 115%
[3]; [11]
  remaining at 8 h, 10 μM: 116%
[3]; [12]
  remaining at 24 h, 10 μM: 77.3%
[3]; [13]
  remaining at 50 h, 10 μM: 67.1%
[3]; human, Remaining peptide (%), 37 °C, incubation time 100 h, relative to 0 h = 100%, technical replicates
  remaining at 100 h, 10 μM: 49%

## CC[C@H](C)[C@@H]1NC(=O)[C@H](Cc2ccc(O)cc2)NC(=O)[C@H]([C@@H](C)O)NC(=O)[C@H](C)NC(=O)[C@@H]2CC[C@@H](C2)NC(=O)[C@H](CO)NC(=O)[C@H]([C@@H](C)O)NC(=O)[C@H](Cc2ccc(O)cc2)NC(=O)[C@H](Cc2ccccc2)NC(=O)[C@H](Cc2c[nH]cn2)NC(=O)[C@H](CC(C)C)NC(=O)[C@@H](Cc2ccc(O)cc2)NC(=O)CSC[C@H](C(N)=O)NC(=O)[C@@H]2CCCN2C(=O)[C@H](Cc2ccc(O)cc2)NC1=O [GM7, ^AcyLHFYTSγ^2ATYIYPc-NH2] ({CH2CO}-[dY]LHFYTS[X1]ATYIYP[dC]-NH2; thioether N-15)
[1]
  Kd: 490 nM
  kd (kinetic dissociation): 23 10^-3 s^-1
  kon: 48000 M⁻¹ s⁻¹
[2]
  IC50: 7930 nM
  inhibition at 25.1 µM: 96%

## CC(C)C[C@@H]1NC(=O)[C@H](CC(N)=O)NC(=O)[C@H](CC(C)C)NC(=O)[C@H]2C[C@H](C2)NC(=O)[C@H](C)NC(=O)[C@H](Cc2ccccc2)NC(=O)[C@@H](Cc2ccc(O)cc2)NC(=O)CSC[C@H](C(N)=O)NC(=O)CNC(=O)[C@@H]2CCCN2C(=O)[C@H](CCCNC(=N)N)NC(=O)[C@H](Cc2ccc(O)cc2)NC(=O)CNC1=O [GM4H3A] ({CH2CO}-[dY]FA[Acbc(cis-1,3)]LNLGYRPG[dC]-NH2; thioether N-13)
[1]
  Kd: > 10000 nM
[2]
  IC50: > 25000 nM
  inhibition of M^pro (in words): no inhibition

## CC(C)C[C@@H]1NC(=O)[C@H](CC(N)=O)NC(=O)[C@H](CC(C)C)NC(=O)[C@H]2C[C@H](C2)NC(=O)[C@H](CCC(=O)O)NC(=O)[C@H](Cc2ccccc2)NC(=O)[C@@H](Cc2ccc(O)cc2)NC(=O)CSC[C@H](C(N)=O)NC(=O)CNC(=O)[C@@H]2CCCN2C(=O)[C@H](CCCNC(=N)N)NC(=O)[C@H](Cc2ccc(O)cc2)NC(=O)CNC1=O [GM4H3E] ({CH2CO}-[dY]FE[Acbc(cis-1,3)]LNLGYRPG[dC]-NH2; thioether N-13)
[1]
  Kd: 360 nM
  kd (kinetic dissociation): 7.1 10^-3 s^-1
  kon: 20000 M⁻¹ s⁻¹
[2]
  IC50: > 25000 nM
  inhibition of M^pro (in words): observed only with the highest tested concentration (25 µM)

## CC(C)C[C@@H]1NC(=O)[C@H](CC(N)=O)NC(=O)[C@H](CC(C)C)NC(=O)[C@H](CC(N)=O)NC(=O)[C@H](Cc2c[nH]cn2)NC(=O)[C@H](Cc2ccccc2)NC(=O)[C@@H](Cc2ccc(O)cc2)NC(=O)CSC[C@H](C(N)=O)NC(=O)CNC(=O)[C@@H]2CCCN2C(=O)[C@H](CCCNC(=N)N)NC(=O)[C@H](Cc2ccc(O)cc2)NC(=O)CNC1=O [GM4γ^14N] ({CH2CO}-[dY]FHNLNLGYRPG[dC]-NH2; thioether N-13)
[1]
  Kd: 480 nM
  kd (kinetic dissociation): 9.5 10^-3 s^-1
  kon: 20000 M⁻¹ s⁻¹
[2]
  IC50: 1000 nM
  fold less active than GM4 (M^pro inhibition): 20 fold
  inhibition at 16.6 µM: 100%
  inhibition at 50.1 µM: 100%
